Calls of active or inactive are those of the source. The rule behind the calls is not given here. Peptide text beside a SMILES is read from it. * marks the point of attachment. X1 = CN(C)c1ccc(/N=N/c2ccc(C(=O)*)cc2)cc1; EDANS = O=S(=O)(O)c1cccc2c(NCCN*)cccc12; Myristoyl = CCCCCCCCCCCCCC(=O)*
Assays:
[1] = target: NAD-dependent protein deacylase sirtuin-6 (Homo sapiens) (UniProt Q8N6T7); assay: Inhibition of SIRT6 (unknown origin) at 300 uM using (DABCYL)ISGASE(MyK)DIVHSE(EDANS)G substrate in presence of NAD followed by 1 hr incubation with trypsin by FRET assay
Sequence of NAD-dependent protein deacylase sirtuin-6 (Homo sapiens) (Q8N6T7 whole entry): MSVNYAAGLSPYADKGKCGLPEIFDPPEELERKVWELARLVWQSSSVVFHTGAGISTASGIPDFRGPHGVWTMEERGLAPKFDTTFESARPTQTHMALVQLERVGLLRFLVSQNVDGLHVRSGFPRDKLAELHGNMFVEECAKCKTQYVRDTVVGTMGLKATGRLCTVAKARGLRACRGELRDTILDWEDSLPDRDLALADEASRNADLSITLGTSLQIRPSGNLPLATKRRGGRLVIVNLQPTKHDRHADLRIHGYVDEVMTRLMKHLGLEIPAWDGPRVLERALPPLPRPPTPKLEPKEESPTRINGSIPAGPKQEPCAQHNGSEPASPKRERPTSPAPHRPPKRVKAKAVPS

[2] = target: T1, NAD-dependent protein deacetylase sirtuin-1 (Homo sapiens) (UniProt Q96EB6); assay: Inhibition of SIRT1 (unknown origin) at 300 uM using (DABCYL)ISGASE(AcK)DIVHSE(EDANS)G substrate in presence of NAD followed by 1 hr incubation with trypsin by FRET assay
T1 sequence (whole entry): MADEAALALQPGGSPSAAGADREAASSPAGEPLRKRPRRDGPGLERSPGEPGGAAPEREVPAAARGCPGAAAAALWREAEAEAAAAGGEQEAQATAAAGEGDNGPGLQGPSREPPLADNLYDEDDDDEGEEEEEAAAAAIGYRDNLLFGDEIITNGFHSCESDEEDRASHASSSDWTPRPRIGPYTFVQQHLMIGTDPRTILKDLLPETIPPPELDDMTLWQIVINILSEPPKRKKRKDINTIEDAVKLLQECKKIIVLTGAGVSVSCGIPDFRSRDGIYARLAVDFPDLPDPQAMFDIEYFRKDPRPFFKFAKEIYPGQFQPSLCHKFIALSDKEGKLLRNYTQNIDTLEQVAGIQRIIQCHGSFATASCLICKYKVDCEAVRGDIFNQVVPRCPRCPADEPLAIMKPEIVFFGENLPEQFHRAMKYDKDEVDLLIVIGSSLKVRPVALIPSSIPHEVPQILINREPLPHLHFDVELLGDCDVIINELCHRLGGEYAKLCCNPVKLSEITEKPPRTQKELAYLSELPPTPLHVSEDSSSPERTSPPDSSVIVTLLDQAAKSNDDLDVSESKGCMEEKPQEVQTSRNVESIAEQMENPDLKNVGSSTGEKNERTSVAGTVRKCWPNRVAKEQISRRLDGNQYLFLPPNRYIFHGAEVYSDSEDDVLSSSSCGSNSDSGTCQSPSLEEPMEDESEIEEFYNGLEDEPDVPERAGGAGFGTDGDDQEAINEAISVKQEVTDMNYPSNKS

Trypsin (Homo sapiens) = Trypsin (Homo sapiens) (UniProt P07477+P07478+P35030); assay: Activity of trypsin (unknown origin) assessed as enzyme-mediated compound hydrolysis by measuring increase in fluorescence at 10 uM incubated for 1 hr at 37 degC relative to control; assay type: protein assay
[3] = target: NAD-dependent protein deacylase sirtuin-6 (Homo sapiens) (UniProt Q8N6T7); assay: Activity of SIRT6 (unknown origin) assessed as enzyme-mediated compound hydrolysis at 10 uM incubated for 60 mins in presence of NAD followed by 1 hr incubation with trypsin

Compound	inhibition [1] [%]	other results
O=C1CCc2c(ccc3ccccc23)O1	< 50	–
NC(=O)c1cccnc1	> 50	inhibition [2]: Active
CC(NC(=O)c1ccccc1/N=C/c1c(O)ccc2ccccc12)c1ccccc1 (configuration not stated)	< 50	–
CC[C@H](C)[C@H](NC(=O)c1ccc(/N=N/c2ccc(N(C)C)cc2)cc1)C(=O)N[C@@H](CO)C(=O)NCC(=O)N[C@@H](C)C(=O)N[C@@H](CO)C(=O)N[C@@H](CCC(=O)O)C(=O)N[C@@H](CCCCN)C(=O)N[C@@H](CC(=O)O)C(=O)N[C@H](C(=O)N[C@H](C(=O)N[C@@H](Cc1cnc[nH]1)C(=O)N[C@@H](CO)C(=O)N[C@@H](CCC(=O)NCCNc1cccc2c(S(=O)(=O)O)cccc12)C(=O)NCC(=O)O)C(C)C)[C@@H](C)CC (HELM PEPTIDE1{[CN(C)c1ccc(/N=N/c2ccc(C(=O)[*:2])cc2)cc1].I.S.G.A.S.E.K.D.I.V.H.S.E.G}|CHEM1{[O=S(=O)(O)c1cccc2c(NCCN[*:1])cccc12]}$PEPTIDE1,CHEM1,14:R3-1:R1$$$V2.0)	–	fold change (FC) (Trypsin (Homo sapiens)): 15
CCCCCCCCCCCCCC(=O)NCCCC[C@H](NC(=O)[C@H](CCC(=O)O)NC(=O)[C@H](CO)NC(=O)[C@H](C)NC(=O)CNC(=O)[C@H](CO)NC(=O)[C@@H](NC(=O)c1ccc(/N=N/c2ccc(N(C)C)cc2)cc1)[C@@H](C)CC)C(=O)N[C@@H](CC(=O)O)C(=O)N[C@H](C(=O)N[C@H](C(=O)N[C@@H](Cc1cnc[nH]1)C(=O)N[C@@H](CO)C(=O)N[C@@H](CCC(=O)NCCNc1cccc2c(S(=O)(=O)O)cccc12)C(=O)NCC(=O)O)C(C)C)[C@@H](C)CC (X1-ISGASEK(Myristoyl)DIVHSE(EDANS)G-OH)	–	fold change (FC) [3]: 10
N#C/C(=C\c1ccc(-c2cc(Cl)ccc2Cl)o1)C(=O)Nc1cccc2ncccc12	< 50	–
